Data as given in patent US5498624A, “Selected pyrazolyl derivatives” (Monsanto Company, priority 1995, dated 1996).

Experiments:
[1] = test system: Uncinula necator; experiment: Vine Powdery Mildew Foliar Assay (VPM Prot); assay type: in vivo; conditions: vine seedlings
Description: A) Pathogen/Inoculum--Vine powdery mildew, caused by Uncinula necator, is an obligate parasite and must be maintained on a living host. Seedling leaves (2-5 leaf stage) of Vitis vinifera var. Carignane, are inoculated by brushing them with the leaves of infected plants. Incubation environment is the same as that described for incubation (Sec. D).
B) Host Propagation- Approximately 60 gm of seed are removed from cold storage and soaked in water for 2-3 days with frequent (3 or more) water changes each day. They are then combined with 24 gm of vermiculite and 30 ml of distilled water and put into refrigeration for 4-5 weeks. After this `vernalization` period, they are planted, 3 seeds/pot, into individual 2.25" pots filled with a commercial potting mix. The pots are watered well, and placed into a growth chamber set at 24° C., 85% RH and a 12 hour photoperiod at 200-300 me/m^2 /sec. The seedlings are thinned to one seedling/pot approximately 14 days after planting. After four to five additional days, seedlings are moved to the greenhouse. Plants are ready for assay 4-6 weeks after planting.
C) Test Compound Preparation
1) Experimental compounds--A final formulation of each of the compounds of the present invention in 20% acetone, 0.1% Tween®20 and 79.9% water is foliarly applied to the seedling vines at about 1.5 mls/pot (4 pots/treatment) using a DeVilbiss 152 sprayer at the rate of 100, 20 and 10 ppm. The seedlings have 2-4 true leaves at application. Treated pots are allowed to dry in a vented room and are then moved to the inoculation growth chamber (see Sec. D for settings).
2) Controls and standards--The commercial product RALLY=NOVA (myclobutanil)is used as an internal standard. Formulated myclobutanil 40 WP is applied at 100 and 20 ppm in water. Also included in the test is an inoculated control treatment (a water/acetone formulation blank).
D) Inoculation/Incubation--Treated vines are inoculated 24 hours after chemical application. Several diseased leaves are removed from inoculum production plants and are very gently brushed on the leaves of the test plants. This gentle contact and agitation allows spores to be dislodged from diseased leaves and fall onto test plant leaves.
The inoculation/incubation growth chamber is set at 24° C., 85% RH, and 12 hour photoperiod at 350 me/m^2 /sec.
E) Evaluation--The test is rated 7-9 days after inoculation or upon maximum disease expression. Percent area infected with disease is determined for each replicate. Treatment means are calculated and percent disease control is determined by the formula "(control mean--treatment mean) * 100 / control mean". The untreated/inoculated control treatment is used for this calculation. […]

[2] = test system: Venturia inaequalis; experiment: In Vitro Apple Scab Assay (ASC In Vitro); assay type: cell-based; conditions: germ tube length
Description: A) Pathogen/Inoculum Production--A suspension of Venturia inaequalis conidia, adjusted to 150,000 spores/ml, is prepared using freshly harvested or frozen conidia. Apple seedlings, cv. McIntosh, are sprayed with this suspension and incubated in a high humidity chamber set at 20° C. with a 12 hour photoperiod for approximately four weeks. At maximum disease expression, a fine mist of deionized water is used to wash conidia from sporulating lesions and the resulting liquid/spore suspension is collected into glass vials and frozen at -80° C. for future use.
B) Compound Preparation--Water agar with 1.5% agar m/v is autoclaved to sterilization. Stock solutions of each compound of the present invention are made by solubilizing them in an appropriate solvent at a convenient concentration. Serial dilutions in solvent are made from this stock to execute the various test rates. When the molten agar is cool enough to pour, the compounds in solvent are dispensed into the agar such that the final concentration ratio of agar to solvent is 100:1. The agar is gently agitated and poured into petri plates, one plate per treatment. The standard used is 3-(difluoromethyl)-N-2,3-dihydro-1,1,3-trimethyl-1H-inden-4-yl)-1-Methyl-1H-Pyrazole-4-carboxamide as found in U.S. Pat. No. 5,093,347.
C) Test Execution--Twenty-four hours after pouring, the plates are ready for inoculation. The previously collected frozen spore suspension is thawed at room temperature and diluted to a concentration of 1×10^4 spores/ml with sterile water. Three drops of approximately 0.1 ml each of the suspension are placed into each plate in an equidistant configuration. The plates are then placed in a dark incubator set at 20° C.
D) Test Evaluation--Forty to forty-eight hours later, the lengths of the spore germ tubes are measured using an ocular lens scale on a binocular microscope. Ten germ tubes in a drop are measured and an average determined for that drop. This procedure is repeated for the other two drops. The values for the three drops are then averaged to give the mean for the treatment. Percent inhibition of germination is calculated using the following equation: % Inhibition=(avg. control length--avg. treatment length/avg. control length) X 100.

[3] = test system: Wheat Leaf Rust; experiment: Wheat Leaf Rust Foliar Assay (WLR Prot); assay type: in vivo; conditions: 20 ppm foliar protectant
Description: A) Pathogen/Inoculum Production--Urediospores of previously infected plants are collected using a small vacuum device and stored in glass vials at -2° C. Just before inoculation the requisite number of vials are warmed and the spores suspended in Soltrol, a light machine oil.
(B) Host Propagation, (C) Compound Preparation and (D) Compound Application follow as per Example 1.
E) Inoculation/Incubation--To inoculate the plants, the urediospore/Soltrol suspension, adjusted to 5×10^4 spores/ml, is applied in a light coating to the foliage, and the plants are placed in a mist tent for 12 to 18 hours at 20° C. in the dark. The test can then be returned to the previous growing conditions until foliar symptoms are evident and the plants can be assessed.
F) Test Evaluation--About 7 days after the plants are removed from the mist tent, the rust lesions should be evident. Three leaves in each pot (replicate) are assessed for percent infection. Phytotoxicity and growth effects are also noted at this time.
G) Data--Follows as per Example 1.

SMILES	VPM Prot percent disease control ([1]; 20 ppm foliar protectant)	VPM Prot percent disease control ([1]; 100 ppm foliar protectant)	ASC In vitro (A.I.) Activity Index ([2]; 0.1 ppm in water agar)	ASC In vitro (A.I.) Activity Index ([2]; 1.0 ppm in water agar)	WLR Prot percent disease control [3]	VPM Prot percent disease control ([1]; 10 ppm foliar protectant)
C[C@@H]1CCC[C@H](c2ccccc2NC(=O)c2cn(C)nc2C(F)F)C1 (relative stereo) [Number 2, 1H-pyrazole-4-carboxamide, 3-(difluoromethyl)-1-methyl-N-[2-(-3-methylcyclohexyl)phenyl]-, cis-]	76%	91%	3	3	96%	
C[C@H]1CCC[C@H](c2ccccc2NC(=O)c2cn(C)nc2C(F)F)C1 (relative stereo) [Number 3, 1H-pyrazole-4-carboxamide, 3-(difluoromethyl)-1-methyl-N-[2-(3-methylcyclohexyl)phenyl]-, trans-]	51%		3	3	100%	34%
